In patent US20250354049A1, “CORROSION-INHIBITING AGENTS FOR REDUCING DISSOLVED OXYGEN CONCENTRATIONS WITHIN UPSTREAM OILFIELD SYSTEMS” (Finoric LLC, priority 2024, published 2025):
In brackets after ≈: the same amount, converted by molar mass. Entries after “also recorded” stand apart in the source; their conditions may differ. Read-outs that look alike come from different tables or passages of the source.

Assays:
[1] = cited from earlier work
[2] = Example 1: oxygen scavenging in deionized water, impact of temperature and activator; conditions: for dissolved oxygen scavenged: absence of catalyst, after 6 h, pH ~6.4, deionized water; for dissolved oxygen scavenged / time until all detectable dissolved oxygen was scavenged: 200 ppm; for time until all detectable dissolved oxygen was scavenged: with activator CuSO4·5H2O 10 ppm, pH ~6.4
Procedure: To prepare the experiment, 500 mL of deionized water (saturated with dissolved oxygen) was placed in a 3-neck round bottom flask, and a calibrated dissolved oxygen probe was inserted into the center neck. FIG. 5 provides picture 500 of the experiment setup. The water was stirred magnetically, and the pH and temperature were adjusted to the indicated values. Temperature was controlled by heating in a water bath, and pH was adjusted to ˜6.4 with dilute hydrogen chloride (HCl). […] The corrosion-inhibiting agent and activator (if used) were injected via micropipette through one of the side necks in the flask. […] The flask was then sealed and dissolved oxygen was monitored continuously as a function of time.

[3] = Example 6: oxygen scavenging in deionized water with and without P110 steel coupon
Procedure: For a first test, no steel coupon was present but for a second test, a P110 steel coupon was suspended in the water. The dissolved oxygen was measured as a function of time at room temperature (˜ 70° F.) for both tests. FIG. 10 provides a picture 1000 of the second test in which the steel coupon was submerged in the deionized water within the glass vessel.
At the 180 min mark, the temperature was increased from 70° F. to 100° F. in both tests.

[4] = cited from earlier work; remark: listed apart in the source
[5] = solvents named; cited from earlier work
[6] = second test, P110 steel coupon present, 200 ppm, ~70° F.

Row | SMILES | ~pKa [1] | Solubility in Water (in words) [4] | Solubility in Other Solvents [5] | other results
1 | N.O=S(O)O [Ammonium bisulfite] | 7 |  |  | 
2 | O=C1O[C@H]([C@@H](O)CO)C(O)=C1O [Ascorbic Acid] |  |  |  | reaction with dissolved oxygen (in words) ([2]; absence of activator, FIG. 6 solid lines): relatively sluggish; dissolved oxygen scavenged ([2]; 100° F.): approximately 35%; dissolved oxygen scavenged ([2]; 135° F.): ~93%; reaction rate with dissolved oxygen (in words) ([2]; copper catalyst (CuSO4·5H2O) added, FIG. 6 dashed lines): significant increase in reaction rate; time until all detectable dissolved oxygen was scavenged ([2]; 100° F.): ≤ 2 min; time until all detectable dissolved oxygen was scavenged ([2]; ambient temperature (72° F.)): ≤ 15 min; dissolved oxygen left behind ([3]; after temperature increased from 70° F. to 100° F. at the 180 min mark): ~0.37 ppm; dissolved oxygen after bolus of copper catalyst ([3]; copper catalyst (10 ppm) injected at the 235 min mark, 100° F.): non-detectable levels; dissolved oxygen concentration after 4 h ([3]; first test without coupon, 200 ppm, dropped from 9.05 ppm, room temperature (~70° F.)): 5.23 ppm; reaction with dissolved oxygen (in words) ([3]; first test without coupon, 200 ppm, ~70° F.): only a slow reaction was observed; rate of reaction with dissolved oxygen (in words) [3, 6]: increased significantly; time after which the scavenging reaction stalled [3, 6]: 180 min
3 | NNC(=O)NN [Carbohydrazide] | 11.81 | Very | ethanol | 
4 | CCN(O)CC [Diethylhydroxylamine (DEHA), diethylhydroxylamine] | 5.7 | Miscible |  | 
5 | NN [Hydrazine] | 8-9 | Miscible | Ethanol,; also recorded: methanol | 
6 | Oc1ccc(O)cc1 [Hydroquinone (HQ), Hydroquinone] | 9.9 |  | Ethanol,; also recorded: acetone | Solubility in Water [4]: 59 g/L (≈ 536 mM)
7 | CCC(C)=NO [Methylethylketoxime (MEKO), Methylethylketoxime] |  | Miscible | Ethanol | 
8 | O=S([O-])O.[Na+] [Sodium Bisulfite] | ~7 |  |  | ~pKa ([1]; listed as sodium bisulfite): ~7
9 | O=S([O-])S(=O)(=O)[O-].[Na+].[Na+] [Sodium Metabisulfite, reference compound] | ~1.8 |  | Glycerol,; also recorded: ethanol | Solubility in Water [4]: 653 g/L
10 | O=S([O-])[O-].[Na+].[Na+] [Sodium Sulfite] | ~9 |  |  | ~pKa ([1]; listed as sodium sulfite): ~9
11 | O=S([O-])([O-])=S.[Na+].[Na+] [Sodium Thiosulfate] | 1.74 |  |  | 
